Patent US20170173060A1, “ACTIVATION OF THE ENDOGENOUS ILEAL BRAKE HORMONE PATHWAY FOR ORGAN REGENERATION AND RELATED COMPOSITIONS, METHODS OF TREATMENT, DIAGNOSTICS, AND REGULATORY SYSTEMS” (VOLANT HOLDINGS GMBH, priority 2014, published 2017)
“Also recorded” adds a separate entry of the source.

Legend:
MIN-6 cells = conditions: cited from earlier work
[1] = 1500 mg taken in three doses of 500 mg; cited from earlier work
[2] = system: hypercholesterolemic New Zealand White rabbits; conditions: cited from earlier work
C57BL/6J mice = conditions: 1 mg/kg body weight, cited from earlier work
patients with RA = conditions: human, in vivo; cited from earlier work
[3] = system: high-risk cardiovascular disease (CVD) patients; conditions: cited from earlier work
people with stable COPD = conditions: in vivo; cited from earlier work
[4] = system: patients with initial abnormal values; assay: Rate of change of weight, HBA1c, HDL, TG and AST in RYGB, Brake, combination and control patients (FIGS. 18-22); format: in vivo, human
[5] = system: patients with metabolic syndrome; assay: FS index of metabolic syndrome tracked over time in patient groups (neural net model); format: in vivo, human
Excerpt: The FS index (Fayad/Schentag) of MS (the relevant equation for which appears in attached FIG. 15) considers the following: Fasting Blood Glucose, Fasting Insulin, HBA1c, BMI, AST, Triglycerides, Glucose Supply-Demand (SD) index, and Proinsulin. Each parameter is mathematically arranged to increase as MS worsens, and weighted approximately equally in the prediction of MS progression and risk for organ damage.
The FS index was then applied to well-studied patient populations already in databases, using a neural net model and the equation set forth in FIG. 15 (and as above). The database included previously published 50 patients with T2D having CV events principally myocardial infarctions, and controls of a precisely matched group of T2D patients without these events (2, 3). […] For each study patient, we had complete access to all raw data, measured vital signs, culture results, and clinician assessments. […]
FS index values were calculated from serial laboratory and clinical data over timeframes ranging between 2 and 10 years. […]
The FS index was applied to well-studied patient populations already in our databases, using a neural net model. […] FS index values were calculated from serial laboratory and clinical data over timeframes ranging 2-10 years. […]

[6] = Case of patient (T2D, chronic hepatitis B, steatosis) on Januvia and Brake; format: in vivo, human; conditions: 6 months after stopping Brake, sitagliptin continued
Method: Both their Triglycerides and hepatic enzymes were 2-3× elevated. […] Their diabetic control deteriorated on this regimen, to the point where they were considered a candidate for insulin. As an alternative, patient was started on Januvia (sitagliptin) 100 mg per day and 7 pills of Brake™. After 6 months treatment, their HBA1c became normal at 6.0, indicating pancreatic regeneration from the combination product. […] They lost 35 lbs. After 6 months, they stopped the Brake™ therapy but continued sitagliptin. By 6 months later they began to gain weight and their HBA1c rose above 6.0, whereupon they resumed taking Brake™ tablets with return of their HBA1c to normal once again. This case taught the inventors that Brake™ associated organ regeneration is a long lived effect of the combination but not a permanent effect. In fact it is often notable that RYGB patients lose the effects of the surgical procedure after two or more years, and it appears that resumption of dietary indiscretion leads to recrudescence of the metabolic syndrome. Patients are thus advised to be vigilant, particularly if weight gain resumes.

[7] = system: human abdominal subcutaneous (AbdSc) adipocytes; conditions: cited from earlier work

Compound: COc1cc(/C=C(\C#N)C(N)=O)cc(CSc2nc3ccccc3s2)c1O [AG825]
- effect on BTC proliferative effect (MIN-6 cells): blocked

Compound: COc1cc2ncnc(Nc3cccc(Cl)c3)c2cc1OC [AG1478]
- effect on BTC proliferative effect (MIN-6 cells): blocked

Compound: COc1ccc2cc3[n+](cc2c1OC)CCc1cc2c(cc1-3)OCO2 [Berberine]
- anti-diabetic effects (biomarkers of type 2 diabetes) [1]: appear to be equal to those of 1500 mg Metformin or 4 mg Glibenclamide

Compound: CCCCCCCCCCC(C)(C)C(=O)Nc1c(OC)cc(OC)cc1OC [CI-976, 2,2-dimethyl-N-(2,4,6-trimethoxyphenyl) dodecanamide]
- decrease of cholesteryl ester enrichment in thoracic aorta ([2]; rabbit, in vivo): 46%
- effect on plasma triglycerides ([2]; rabbit, in vivo): no effect
- reduction of foam cell area in iliac-femoral lesion ([2]; relative to the initiation of intervention, dose that did not lower plasma cholesterol): 27-29%

Compound: CC(C)=CCC[C@](C)(O)[C@H]1CC[C@]2(C)[C@@H]1[C@H](O)C[C@@H]1[C@@]3(C)CC[C@H](O[C@@H]4O[C@H](CO)[C@@H](O)[C@H](O)[C@H]4O)C(C)(C)[C@@H]3CC[C@]12C [GS-Rh2, ginsenoside Rh2]
- glycemia and glucose tolerance (C57BL/6J mice; within 14 days post-PPx): improved glycemia and glucose tolerance
- beta-cell proliferation (C57BL/6J mice): increased beta-cell proliferation percentages

Compound: CN(Cc1cnc2nc(N)nc(N)c2n1)c1ccc(C(=O)N[C@@H](CCC(=O)O)C(=O)O)cc1 [MTX, Methotrexate]
- risk of CVD events (patients with RA): associated with a reduced risk of CVD events

Compound: COc1cc(OC)c2c(=O)[nH]c(-c3cc(C)c(OCCO)c(C)c3)nc2c1 [RVX-208]
- change of ratio of necrotic core to dense calcium (NC/DC) ([3]; VH-IVUS, treated patients n=61): −7.5%
- incidence of MACE lower vs. placebo ([3]; patients with hsCRP >2.0 mg/dL): 63%

Compound: O=C(Nc1c(Cl)cncc1Cl)c1ccc(OC(F)F)c(OCC2CC2)c1 [Roflumilast]
- body weight during the trial period (people with stable COPD): weight loss

Compound: CC(C)c1c(C(=O)Nc2ccccc2)c(-c2ccccc2)c(-c2ccc(F)cc2)n1CC[C@@H](O)C[C@@H](O)CC(=O)O [atorvastatin]
- HDL change ([4]; FIG. 20, control patients mostly atorvastatin 10 mg): essentially no change in HDL
- triglyceride (TG) changes ([4]; FIG. 21): either stayed the same or had a minor drop in TG
- AST concentrations and rate of change ([4]; FIG. 22): little effect on hepatic inflammation

Compound: CN(C)C(=N)N=C(N)N [metformin]
- parameters that would indicate regeneration ([5]; control patients, even at dosages of 2.0 grams daily): no significant change
- pattern of FS index over time ([5]; metformin alone, 61 patients (FIG. 5)): rises; also recorded: flat or slowly rising
- weight change ([4]; FIG. 18): either stayed the same or lost a few pounds
- HBA1c change ([4]; FIG. 19): either stayed the same or had a minor drop in HBA1c
- effect on metabolic syndrome biomarkers when given alone ([4]; FIGS. 18-21 control patients): little effect

Compound: N[C@@H](CC(=O)N1CCn2c(nnc2C(F)(F)F)C1)Cc1cc(F)c(F)cc1F [sitagliptin]
- HBA1c [6]: above 6.0

Compound: lipopolysaccharide [LPS]
- TLR-2 protein expression increase [7]: twofold
- TNF-alpha secretion ([7]; control 1.0+/-0.83): 32.8 ± 6.23 pg/mL
- IL-6 secretion ([7]; control 2.7+/-0.5): 4.8 ± 0.3 ng/mL
